Results: BigSolDB 2.1

CCCSc1ccc2nc(NC(=O)OC)[nH]c2c1
solubility (mole fraction)
Details	in acetone	in ethanol	in ethyl acetate	in isobutyl acetate	in isopropanol	in methanol	in n-butanol	in n-butyl acetate	in n-propanol	in n-propyl acetate
278.15 K	0.00148	5.59e-05	0.00053	0.000491	9.89e-05	9.62e-05	0.00021	0.000553	0.00017	0.000468
283.15 K	0.00173	7.25e-05	0.000596	0.000542	0.000128	0.000114	0.000254	0.000609	0.000192	0.00054
288.15 K	0.00204	9.39e-05	0.000688	0.000594	0.000156	0.000133	0.000298	0.000691	0.00023	0.000598
293.15 K	0.00253	0.00011	0.000805	0.000671	0.000187	0.000157	0.000343	0.000783	0.000276	0.000673
298.15 K	0.00302	0.00014	0.000925	0.000749	0.000234	0.000174	0.000402	0.000873	0.000325	0.000777
303.15 K	0.00349	0.000182	0.00103	0.000799	0.000272	0.000205	0.000473	0.000983	0.000371	0.000858
308.15 K	0.00389	0.000234	0.00119	0.000873	0.000328	0.000257	0.000558	0.0011	0.000423	0.000962
313.15 K	0.00442	0.000297	0.00133	0.000964	0.000394	0.000298	0.00063	0.0012	0.000488	0.00106
318.15 K	0.00528	0.000364	0.0015	0.00109	0.000456	0.000363	0.000738	0.00132	0.000569	0.00117
323.15 K	0.00589	0.000452	0.00167	0.00119	0.000553	0.000428	0.000829	0.00146	0.000624	0.0013
